Source: US20250163104A1, “MACROCYCLIC IMMUNOMODULATORS” (priority 2021, published 2025)
Where a SMILES comes first, the peptide text is derived from it. Bridges are numbered along the chain shown (N, C = ends). [ ]: non-standard residue; d: D form. The star is where a group is joined. Phe(4-COOH) = N[C@@H](Cc1ccc(C(=O)O)cc1)C(=O)O; Bip = N[C@@H](Cc1ccc(-c2ccccc2)cc1)C(=O)O; aIle = CC[C@@H](C)[C@H](N)C(=O)O; 4Pal = N[C@@H](Cc1ccncc1)C(=O)O; Cha = N[C@@H](CC1CCCCC1)C(=O)O; dCha = N[C@H](CC1CCCCC1)C(=O)O; Carboxymethyl = O=C(O)C*; Orn = NCCC[C@H](N)C(=O)O; Dab = NCC[C@H](N)C(=O)O; Dap = NC[C@H](N)C(=O)O

Biological target: T1, human PD-1 / PD-L1-Ig binding on Jurkat cell line over-expressing human PD-1 (Jurkat-PD-1) (Homo sapiens, UniProt Q15116)
T1 construct: expressed in transfected cells; host or cells: Jurkat
Assay: Jurkat-PD-1 Cell Binding High-Content Screening Assay (CBA)
Format: cell-based
Conditions: Jurkat-PD-1 cells, PE-labeled PD-L1-Ig 20 nM final; read-out: Jurkat HPD1_PDL1 IC50
Outline: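 PE-PD-L1-Ig 20 nM final; cells in DMEM/10% FCS; cpd pre-incubation 2 h, 37° C; ligand 1 h; PFA fix + Hoechst 33342; high-content imaging read-out.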

T1 sequence (Q15116 25-288): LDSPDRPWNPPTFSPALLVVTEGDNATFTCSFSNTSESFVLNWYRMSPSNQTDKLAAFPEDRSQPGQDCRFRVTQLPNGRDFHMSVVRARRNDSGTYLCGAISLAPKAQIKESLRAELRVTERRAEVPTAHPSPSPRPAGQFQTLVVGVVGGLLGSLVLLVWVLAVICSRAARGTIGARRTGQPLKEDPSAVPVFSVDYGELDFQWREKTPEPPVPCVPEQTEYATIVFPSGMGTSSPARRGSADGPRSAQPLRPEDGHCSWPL

IC50 [nM] | SMILES
5 | CC[C@@H](C)[C@@H]1NC(=O)[C@H](Cc2ccc(-c3ccccc3)cc2)NC(=O)[C@H](C(C)C)NC(=O)[C@H](Cc2cccc(C)c2)NC(=O)[C@H](CC(=O)O)NC(=O)[C@H](Cc2ccc(C(=O)O)cc2)NC(=O)[C@H](Cc2ccncc2)NC(=O)CSC[C@@H](C(=O)N[C@@H](C)C(N)=O)NC(=O)[C@H]([C@@H](C)O)NC(=O)[C@H](C(C)C)NC(=O)[C@H](CC2CCCCC2)NC(=O)[C@H](CCN)NC(=O)[C@@H](CC(C)C)NC(=O)[C@H](CCCN)NC1=O [Compound 1620]
36.7 | Cc1cccc(C[C@@H]2NC(=O)[C@H](CC(=O)O)NC(=O)[C@H](Cc3ccc(C(=O)O)cc3)NC(=O)[C@H](Cc3ccncc3)NC(=O)CSC[C@@H](C(=O)N[C@@H](C)C(N)=O)NC(=O)[C@H]([C@@H](C)O)NC(=O)[C@H](C(C)C)NC(=O)[C@H](CC3CCCCC3)NC(=O)[C@H](CCN)NC(=O)[C@@H](CC(C)C)NC(=O)[C@H](CCCN)NC(=O)[C@H](CC3CCCCC3)NC(=O)[C@H](Cc3ccc(-c4ccccc4)cc3)NC(=O)[C@H](C(C)C)NC2=O)c1 [Compound 1621]
36 | CCCC[C@@H]1NC(=O)[C@H](Cc2ccc(-c3ccccc3)cc2)NC(=O)[C@H](C(C)C)NC(=O)[C@H](Cc2c[nH]c3ccccc23)NC(=O)[C@H](CC(=O)O)NC(=O)[C@H](Cc2ccc(C(=O)O)cc2)NC(=O)[C@H](Cc2ccncc2)NC(=O)CSC[C@@H](C(=O)N[C@@H](C)C(N)=O)NC(=O)[C@H]([C@@H](C)O)NC(=O)[C@H](C(C)C)NC(=O)[C@H](CC2CCCCC2)NC(=O)[C@H](Cc2cnc[nH]2)NC(=O)[C@@H](CC(C)C)NC(=O)[C@H](CCCN)NC1=O [Compound 1622]
27 | CCC[C@@H]1NC(=O)[C@H](Cc2ccc(-c3ccccc3)cc2)NC(=O)[C@H](C(C)C)NC(=O)[C@H](Cc2c[nH]c3ccccc23)NC(=O)[C@H](CC(=O)O)NC(=O)[C@H](Cc2ccc(C(=O)O)cc2)NC(=O)[C@H](Cc2ccncc2)NC(=O)CSC[C@@H](C(=O)N[C@@H](C)C(N)=O)NC(=O)[C@H]([C@@H](C)O)NC(=O)[C@H](C(C)C)NC(=O)[C@H](CC2CCCCC2)NC(=O)[C@H](Cc2cnc[nH]2)NC(=O)[C@@H](CC(C)C)NC(=O)[C@H](CCCN)NC1=O [Compound 1623]
26.9 | CC[C@@H](C)[C@@H]1NC(=O)[C@H](Cc2ccc(-c3ccccc3)cc2)NC(=O)[C@H](C(C)C)NC(=O)[C@H](Cc2c[nH]c3ccccc23)NC(=O)[C@H](CC(=O)O)NC(=O)[C@H](Cc2ccc(C(=O)O)cc2)NC(=O)[C@H](Cc2ccncc2)NC(=O)CSC[C@@H](C(=O)N[C@@H](C)C(N)=O)NC(=O)[C@H]([C@@H](C)O)NC(=O)[C@H](C(C)C)NC(=O)[C@H](CC2CCCCC2)NC(=O)[C@H](CCN)NC(=O)[C@@H](CC2CCCCC2)NC(=O)[C@H](CCCN)NC1=O [Compound 1624] ({CH2CO}-[4Pal][Phe(4-COOH)]DWV[Bip][aIle][Orn][dCha][Dab][Cha]VTCA-NH2; thioether N-14)
35 | CC[C@@H](C)[C@@H]1NC(=O)[C@H](Cc2ccc(-c3ccccc3)cc2)NC(=O)[C@H](C(C)C)NC(=O)[C@H](Cc2c[nH]c3ccccc23)NC(=O)[C@H](CC(=O)O)NC(=O)[C@H](Cc2ccc(OCC(=O)O)cc2)NC(=O)[C@H](Cc2ccc(OCC(=O)O)cc2)NC(=O)CSC[C@@H](C(=O)N[C@@H](C)C(N)=O)NC(=O)[C@H]([C@@H](C)O)NC(=O)[C@H](C(C)C)NC(=O)[C@H](CC2CCCCC2)NC(=O)[C@H](CCN)NC(=O)[C@@H](CC2CCCCC2)NC(=O)[C@H](CCCN)NC1=O [Compound 1625] ({CH2CO}-Y(Carboxymethyl)Y(Carboxymethyl)DWV[Bip][aIle][Orn][dCha][Dab][Cha]VTCA-NH2; thioether N-14)
51.9 | CC[C@@H](C)[C@@H]1NC(=O)[C@H](Cc2ccc(-c3ccccc3)cc2)NC(=O)[C@H](C(C)C)NC(=O)[C@H](Cc2c[nH]c3ccccc23)NC(=O)[C@H](CC(=O)O)NC(=O)[C@H](Cc2ccc(C(=O)O)cc2)NC(=O)[C@H](Cc2ccc(OCC(=O)O)cc2)NC(=O)CSC[C@@H](C(=O)N[C@@H](C)C(N)=O)NC(=O)[C@H]([C@@H](C)O)NC(=O)[C@H](C(C)C)NC(=O)[C@H](CC2CCCCC2)NC(=O)[C@H](CCN)NC(=O)[C@@H](CC2CCCCC2)NC(=O)[C@H](CCCN)NC1=O [Compound 1626] ({CH2CO}-Y(Carboxymethyl)[Phe(4-COOH)]DWV[Bip][aIle][Orn][dCha][Dab][Cha]VTCA-NH2; thioether N-14)
19.3 | CC[C@@H](C)[C@@H]1NC(=O)[C@H](Cc2ccc(-c3ccccc3)cc2)NC(=O)[C@H](C(C)C)NC(=O)[C@H](Cc2c[nH]c3ccccc23)NC(=O)[C@H](CC(=O)O)NC(=O)[C@H](Cc2ccc(OCC(=O)O)cc2)NC(=O)[C@H](CN)NC(=O)CSC[C@@H](C(=O)N[C@@H](C)C(N)=O)NC(=O)[C@H]([C@@H](C)O)NC(=O)[C@H](C(C)C)NC(=O)[C@H](CC2CCCCC2)NC(=O)[C@H](CCN)NC(=O)[C@@H](CC2CCCCC2)NC(=O)[C@H](CCCN)NC1=O [Compound 1627] ({CH2CO}-[Dap]Y(Carboxymethyl)DWV[Bip][aIle][Orn][dCha][Dab][Cha]VTCA-NH2; thioether N-14)
24.9 | CC[C@@H](C)[C@@H]1NC(=O)[C@H](Cc2ccc(-c3ccccc3)cc2)NC(=O)[C@H](C(C)C)NC(=O)[C@H](Cc2c[nH]c3ccccc23)NC(=O)[C@H](CC(=O)O)NC(=O)[C@H](Cc2ccc(OCC(=O)O)cc2)NC(=O)[C@H](Cc2ccncc2)NC(=O)CSC[C@@H](C(=O)N[C@@H](C)C(N)=O)NC(=O)[C@H]([C@@H](C)O)NC(=O)[C@H](C(C)C)NC(=O)[C@H](CC2CCCCC2)NC(=O)[C@H](CCN)NC(=O)[C@@H](CC2CCCCC2)NC(=O)[C@H](CCCN)NC1=O [Compound 1628] ({CH2CO}-[4Pal]Y(Carboxymethyl)DWV[Bip][aIle][Orn][dCha][Dab][Cha]VTCA-NH2; thioether N-14)
19.9 | CC[C@@H](C)[C@@H]1NC(=O)[C@H](Cc2ccc(-c3ccccc3)cc2)NC(=O)[C@H](C(C)C)NC(=O)[C@H](Cc2c[nH]c3ccccc23)NC(=O)[C@H](CC(=O)O)NC(=O)[C@H](Cc2ccncc2)NC(=O)[C@H](Cc2ccc(OCC(=O)O)cc2)NC(=O)CSC[C@@H](C(=O)N[C@@H](C)C(N)=O)NC(=O)[C@H]([C@@H](C)O)NC(=O)[C@H](C(C)C)NC(=O)[C@H](CC2CCCCC2)NC(=O)[C@H](CCN)NC(=O)[C@@H](CC2CCCCC2)NC(=O)[C@H](CCCN)NC1=O [Compound 1629] ({CH2CO}-Y(Carboxymethyl)[4Pal]DWV[Bip][aIle][Orn][dCha][Dab][Cha]VTCA-NH2; thioether N-14)
48.3 | CC[C@@H](C)[C@@H]1NC(=O)[C@H](Cc2ccc(-c3ccccc3)cc2)NC(=O)[C@H](C(C)C)NC(=O)[C@H](Cc2c[nH]c3ccccc23)NC(=O)[C@H](CC(=O)O)NC(=O)[C@H](Cc2ccncc2)NC(=O)[C@H](CN)NC(=O)CSC[C@@H](C(=O)N[C@@H](C)C(N)=O)NC(=O)[C@H]([C@@H](C)O)NC(=O)[C@H](C(C)C)NC(=O)[C@H](CC2CCCCC2)NC(=O)[C@H](CCN)NC(=O)[C@@H](CC2CCCCC2)NC(=O)[C@H](CCCN)NC1=O [Compound 1630] ({CH2CO}-[Dap][4Pal]DWV[Bip][aIle][Orn][dCha][Dab][Cha]VTCA-NH2; thioether N-14)
44.1 | CC[C@@H](C)[C@@H]1NC(=O)[C@H](Cc2ccc(-c3ccccc3)cc2)NC(=O)[C@H](C(C)C)NC(=O)[C@H](Cc2c[nH]c3ccccc23)NC(=O)[C@H](CC(=O)O)NC(=O)[C@H](Cc2ccc(O)cc2)NC(=O)[C@H](CC(N)=O)NC(=O)CSC[C@@H](C(=O)N[C@@H](C)C(N)=O)NC(=O)[C@H]([C@@H](C)O)NC(=O)[C@H](C(C)C)NC(=O)[C@H](CC2CCCCC2)NC(=O)[C@H](CCN)NC(=O)[C@@H](CC2CCCCC2)NC(=O)[C@H](CCCN)NC1=O [Compound 1631] ({CH2CO}-NYDWV[Bip][aIle][Orn][dCha][Dab][Cha]VTCA-NH2; thioether N-14)
15.6 | CC(C)[C@@H]1NC(=O)[C@H](Cc2c[nH]c3ccccc23)NC(=O)[C@H](CC(=O)O)NC(=O)[C@H](Cc2ccc(C(=O)O)cc2)NC(=O)[C@H](Cc2ccncc2)NC(=O)CSC[C@@H](C(=O)N[C@@H](C)C(N)=O)NC(=O)[C@H]([C@@H](C)O)NC(=O)[C@H](C(C)C)NC(=O)[C@H](CC2CCCCC2)NC(=O)[C@H](CCN)NC(=O)[C@@H](CC2CCCCC2)NC(=O)[C@H](CCCN)NC(=O)[C@H](C(C)C)NC(=O)[C@H](Cc2ccc(-c3ccccc3)cc2)NC1=O [Compound 1632] ({CH2CO}-[4Pal][Phe(4-COOH)]DWV[Bip]V[Orn][dCha][Dab][Cha]VTCA-NH2; thioether N-14)
20.2 | CC(C)[C@@H]1NC(=O)[C@H](Cc2c[nH]c3ccccc23)NC(=O)[C@H](CC(=O)O)NC(=O)[C@H](Cc2ccc(OCC(=O)O)cc2)NC(=O)[C@H](Cc2ccc(OCC(=O)O)cc2)NC(=O)CSC[C@@H](C(=O)N[C@@H](C)C(N)=O)NC(=O)[C@H]([C@@H](C)O)NC(=O)[C@H](C(C)C)NC(=O)[C@H](CC2CCCCC2)NC(=O)[C@H](CCN)NC(=O)[C@@H](CC2CCCCC2)NC(=O)[C@H](CCCN)NC(=O)[C@H](C(C)C)NC(=O)[C@H](Cc2ccc(-c3ccccc3)cc2)NC1=O [Compound 1633] ({CH2CO}-Y(Carboxymethyl)Y(Carboxymethyl)DWV[Bip]V[Orn][dCha][Dab][Cha]VTCA-NH2; thioether N-14)
20.3 | CC(C)[C@@H]1NC(=O)[C@H](Cc2c[nH]c3ccccc23)NC(=O)[C@H](CC(=O)O)NC(=O)[C@H](Cc2ccc(C(=O)O)cc2)NC(=O)[C@H](Cc2ccc(OCC(=O)O)cc2)NC(=O)CSC[C@@H](C(=O)N[C@@H](C)C(N)=O)NC(=O)[C@H]([C@@H](C)O)NC(=O)[C@H](C(C)C)NC(=O)[C@H](CC2CCCCC2)NC(=O)[C@H](CCN)NC(=O)[C@@H](CC2CCCCC2)NC(=O)[C@H](CCCN)NC(=O)[C@H](C(C)C)NC(=O)[C@H](Cc2ccc(-c3ccccc3)cc2)NC1=O [Compound 1634] ({CH2CO}-Y(Carboxymethyl)[Phe(4-COOH)]DWV[Bip]V[Orn][dCha][Dab][Cha]VTCA-NH2; thioether N-14)
